The experiment has as its target Collagenase 3 (Homo sapiens, UniProt P45452). In words: Inhibition of Matrix metalloprotease-13.
`C=CC(CCc1ccccc1)CC(O)C(F)(F)c1ccc(Cc2ccccc2)cc1` (centres undefined) registered an IC50 of 27 µM.

As for `CNC(=O)C(NC(=O)C(CCc1ccccc1)CC(O)C(F)(F)c1ccc(Cc2ccccc2)cc1)C(C)(C)C` (centres undefined), the IC50 is greater than 30 µM. In the case of `O=C(C(CCc1ccccc1)CC(=O)C(F)(F)c1ccc(Cc2ccccc2)cc1)N1CCCCC1` (centres undefined) it was 6.1 µM. For `CNC(=O)C(NC(=O)C(CCc1ccccc1)CC(=O)C(F)(F)c1ccc(Cc2ccccc2)cc1)C(C)(C)C` (centres undefined), inhibition was half-maximal at 5.1 µM (IC50). The IC50 values of the last two molecules are within 1.5-fold of each other.

Take `O=C(CCCCc1ccccc1)C(F)(F)c1ccc(Cc2ccccc2)cc1`: the concentration for half-maximal inhibition (IC50) is greater than 30 µM. `CNC(=O)C(NC(=O)CCC(=O)C(F)(F)c1ccc(Cc2ccccc2)cc1)C(C)(C)C` (centres undefined) returned an IC50 of 12 µM.

In turn, `C=CC(CCc1ccccc1)CC(=O)C(F)(F)c1ccc(Cc2ccccc2)cc1` (centres undefined) displayed an IC50 of 0.29 µM. This IC50 is about 41-fold lower than that of the molecule before. Regarding `CNC(=O)[C@@H](NC(=O)C(CCc1ccccc1)CP(=O)(O)Cc1ccc(Cc2ccccc2)cc1)C(C)(C)C` (some centres undefined), half-maximal inhibition (IC50) was put at 0.014 µM. For `C=CCCC(=O)C(F)(F)c1ccc(Cc2ccccc2)cc1` the value was greater than 30 µM.

By IC50 is commonly meant the concentration that gives 50% inhibition. A lower IC50 goes with inhibition by little substance.

Values taken from ChEMBL document CHEMBL1133133, “Difluoroketones as inhibitors of matrix metalloprotease-13” (Bioorg Med Chem Lett, 2000).
